Data as given in US20140303164A1, “THERAPEUTIC COMPOUNDS” (Gilead Sciences, Inc., priority 2013, published 2014).

How the values were obtained:
[1] = system: HIV-IIIb; experiment: Test A: Antiviral Assay in MT4 Cells; format: cell-based, HIV-1; settings: for % inhibition at 0.2 μM: percent inhibition of virus-induced cell killing at 0.2 μM drug concentration; for % inhibition at 0.2 μM / % inhibition at 2 μM: from dose response curve, MT-4 cells, HIV-IIIb, 5 days, values above 100 normalized to 100; for % inhibition at 2 μM: percent inhibition of virus-induced cell killing at 2 μM drug concentration; for inhibition at 0.2 µM / inhibition at 2 µM: Human immunodeficiency virus 1, IIIB, MT4, 120 h; for inhibition at 0.2 µM: read-out: % inhibition at 0.2 μM; for inhibition at 2 µM: read-out: % inhibition at 2 μM
Experimental: Test A: Antiviral Assay in MT4 Cells
MT-4 cells were next mixed with HIV-IIIb at an m.o.i of 0.003 for 1 hour, after which time 35 μL of virus/cell mixture (2000 cells) was immediately added to each well containing 40 μL of diluted compound. The plates were then incubated at 37° C. for 5 days. […] Cell lysis was carried out by incubating at room temperature for 10 min and then chemiluminescence was read.

[2] = system: uninfected MT-4 cells; experiment: Test B: Cytotoxicity Assay; format: cell-based; settings: same protocol as Test A, 5 days
How it was run: (§1)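 Uninfected MT-4 cells (2000 per well) incubated with diluted compound at 37° C. for 5 days, following the antiviral protocol without HIV-IIIb.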

[3] = Test B: Cytotoxicity Assay; format: cell-based; settings: human, uninfected MT-4 cells, same protocol as Test A
How it was run: as §1

Question: For `CC(C)(O)C#Cc1ccc(-c2cccc3c(N)n[nH]c23)c([C@H](Cc2cc(F)cc(F)c2)NC(=O)Cn2nc(C(F)(F)F)c3c2C(F)(F)[C@@H]2C[C@H]32)n1` [Compound 29B, N—((S)-1-(3-(3-amino-1H-indazol-7-yl)-6-(3-hydroxy-3-methylbut-1-yn-1-yl)pyridin-2-yl)-2-(3,5-difluorophenyl)ethyl)-2-((3b-S,4aR)-5,5-difluoro-3-(trifluoromethyl)-3b,4,4a,5-tetrahydro-1H-cyclopropa[3,4]cyclopenta[1,2-c]pyrazol-1-yl)acetamide], which “% inhibition at 0.2 μM” value [1] is on record?
Answer: Its value is 80%.

Question: What about the “% inhibition at 2 μM” value [1] of the same molecule?
Answer: Its value is 81%.

Question: And the CC50 [2]?
Answer: Its CC50 is 15.3 µM.

Question: For `Cn1nc(NS(C)(=O)=O)c2cccc(-c3ccc(C#C[C@@H](N)CO)nc3[C@H](Cc3cc(F)cc(F)c3)NC(=O)Cn3nc(C(F)(F)F)c4c3C(F)(F)[C@@H]3C[C@H]43)c21` [Compound 59B, N—((S)-1-(6-((R)-3-amino-4-hydroxybut-1-yn-1-yl)-3-(1-methyl-3-(methylsulfonamido)-1H-indazol-7-yl)pyridin-2-yl)-2-(3,5-difluorophenyl)ethyl)-2-((3b-S,4aR)-5,5-difluoro-3-(trifluoromethyl)-3b,4,4a,5-tetrahydro-1H-cyclopropa[3,4]cyclopenta[1,2-c]pyrazol-1-yl)acetamide], which “% inhibition at 0.2 μM” value [1] is on record?
Answer: The value was 94%.

Question: And the “% inhibition at 2 μM” value [1]?
Answer: The value was 94%.

Question: What about the CC50 [2] of the same molecule?
Answer: Its CC50 is 22.4 µM.

Question: With `Cc1ccc(-c2ccc(C#CC(C)(C)O)nc2[C@H](Cc2cc(F)cc(F)c2)NC(=O)Cn2nc(C(F)F)c3c2C(F)(F)[C@@H]2C[C@H]32)c2c1c(NS(N)(=O)=O)nn2C` [Compound 71, 2-((3b-S,4aR)-3-(difluoromethyl)-5,5-difluoro-3b,4,4a,5-tetrahydro-1H-cyclopropa[3,4]cyclopenta[1,2-c]pyrazol-1-yl)-N—((S)-2-(3,5-difluorophenyl)-1-(3-(1,4-dimethyl-3-(sulfamoylamino)-1H-indazol-7-yl)-6-(3-hydroxy-3-methylbut-1-yn-1-yl)pyridin-2-yl)ethyl)acetamide] as the molecule, how does the “% inhibition at 0.2 μM” value [1] read?
Answer: Its value is 87%.

Question: And the “% inhibition at 2 μM” value [1]?
Answer: The value was 87%.

Question: What about the CC50 [2] of the same molecule?
Answer: The CC50 was 9.51 µM.

Question: For `CC(C)(C)C#Cc1ccc(-c2cccn3c(NS(C)(=O)=O)nnc23)c([C@H](Cc2cc(F)cc(F)c2)NC(=O)Cn2nc(C(F)F)c3c2C(F)(F)[C@@H]2C[C@H]32)n1` [Compound 134, 2-((3bS,4aR)-3-(difluoromethyl)-5,5-difluoro-3b,4,4a,5-tetrahydro-1H-cyclopropa[3,4]cyclopenta[1,2-c]pyrazol-1-yl)-N—((S)-2-(3,5-difluorophenyl)-1-(6-(3,3-dimethylbut-1-yn-1-yl)-3-(3-(methylsulfonamido)-[1,2,4]triazolo[4,3-a]pyridin-8-yl)pyridin-2-yl)ethyl)acetamide], which “% inhibition at 0.2 μM” value [1] is on record?
Answer: Its value is 82%.

Question: What about the “% inhibition at 2 μM” value [1] of the same molecule?
Answer: The value was 83%.

Question: And the CC50 [2]?
Answer: The CC50 was 28 µM.

Question: What does the source list for `COc1cc(-c2ccc(Cl)c3c(NS(C)(=O)=O)nn(C)c23)c([C@H](Cc2cc(F)cc(F)c2)NC(=O)Cn2nc(C(F)(F)F)c3c2C(F)(F)[C@@H]2C[C@H]32)nc1C#CC(C)(C)O` [Compound 135B, N—((S)-1-(3-(4-chloro-1-methyl-3-(methylsulfonamido)-1H-indazol-7-yl)-6-(3-hydroxy-3-methylbut-1-yn-1-yl)-5-methoxypyridin-2-yl)-2-(3,5-difluorophenyl)ethyl)-2-((3b-S,4aR)-5,5-difluoro-3-(trifluoromethyl)-3b,4,4a,5-tetrahydro-1H-cyclopropa[3,4]cyclopenta[1,2-c]pyrazol-1-yl)acetamide]?
Answer: % inhibition at 0.2 μM [1]: 93%; % inhibition at 2 μM [1]: 93%; CC50 [2]: 14.2 µM

Question: Which results are given for `CCC(O)C#Cc1ccc(-c2ccc(Cl)c3c(NS(C)(=O)=O)nn(C)c23)c([C@H](Cc2cc(F)cc(F)c2)NC(=O)Cn2nc(C(F)(F)F)c3c2C(F)(F)[C@@H]2C[C@H]32)n1` (stereo partly drawn) [Compound 145, N-((1S)-1-(3-(4-chloro-1-methyl-3-(methylsulfonamido)-1H-indazol-7-yl)-6-(3-hydroxypent-1-yn-1-yl)pyridin-2-yl)-2-(3,5-difluorophenyl)ethyl)-2-((3b-S,4aR)-5,5-difluoro-3-(trifluoromethyl)-3b,4,4a,5-tetrahydro-1H-cyclopropa[3,4]cyclopenta[1,2-c]pyrazol-1-yl)acetamide]?
Answer: % inhibition at 0.2 μM [1]: 99%; % inhibition at 2 μM [1]: 99%; CC50 [2]: 8.69 µM

Question: Which CC50 [2] does the source give for `Cn1nc(NS(C)(=O)=O)c2c(Cl)ccc(-c3ccc(-c4ccccn4)nc3[C@H](Cc3cc(F)cc(F)c3)NC(=O)Cn3nc(C(F)(F)F)c4c3C(F)(F)[C@@H]3C[C@H]43)c21` [Compound 172, N—((S)-1-(5-(4-chloro-1-methyl-3-(methylsulfonamido)-1H-indazol-7-yl)-[2,2′-bipyridin]-6-yl)-2-(3,5-difluorophenyl)ethyl)-2-((3b-S,4aR)-5,5-difluoro-3-(trifluoromethyl)-3b,4,4a,5-tetrahydro-1H-cyclopropa[3,4]cyclopenta[1,2-c]pyrazol-1-yl)acetamide] here?
Answer: The CC50 was 0.061 µM.

Question: What does the source list for `Cn1cc(-c2ccc(-c3ccc(Cl)c4c(NS(C)(=O)=O)nn(C)c34)c([C@H](Cc3cc(F)cc(F)c3)NC(=O)Cn3nc(C(F)(F)F)c4c3C(F)(F)[C@@H]3C[C@H]43)n2)cn1` [Compound 173, N—((S)-1-(3-(4-chloro-1-methyl-3-(methylsulfonamido)-1H-indazol-7-yl)-6-(1-methyl-1H-pyrazol-4-yl)pyridin-2-yl)-2-(3,5-difluorophenyl)ethyl)-2-((3b-S,4aR)-5,5-difluoro-3-(trifluoromethyl)-3b,4,4a,5-tetrahydro-1H-cyclopropa[3,4]cyclopenta[1,2-c]pyrazol-1-yl)acetamide]?
Answer: % inhibition at 0.2 μM [1]: 92%; % inhibition at 2 μM [1]: 92%; CC50 [2]: > 43.7 µM

Question: With `Cc1ccc(C)c2c1NC(=O)C2CC(=O)N[C@@H](Cc1cc(F)cc(F)c1)c1nc(C#CC(C)(C)O)ccc1-c1ccc(Cl)c2c(NS(C)(=O)=O)nn(C)c12` (stereo partly drawn) [Compound 196, N—((S)-1-(3-(4-chloro-1-methyl-3-(methylsulfonamido)-1H-indazol-7-yl)-6-(3-hydroxy-3-methylbut-1-yn-1-yl)pyridin-2-yl)-2-(3,5-difluorophenyl)ethyl)-2-(4,7-dimethyl-2-oxoindolin-3-yl)acetamide] as the molecule, how does the inhibition at 0.2 µM [1] read?
Answer: Its inhibition at 0.2 µM is 76%.

Question: What about the inhibition at 2 µM [1] of the same molecule?
Answer: The inhibition at 2 µM was 92%.

Question: And the CC50 at 5 days [3]?
Answer: Its CC50 at 5 days is 10.8 µM.

Question: Which inhibition at 2 µM [1] does the source give for `CCN1CCN(CC(=O)N[C@@H](Cc2cc(F)cc(F)c2)c2nc(C#CC(C)(C)O)ccc2-c2ccc(Cl)c3c(NS(C)(=O)=O)nn(C)c23)CC1` [Compound 197, (S)—N-(1-(3-(4 chloro-1-methyl-3-(methylsulfonamido)-1H-indazol-7-yl)-6-(3-hydroxy-3-methylbut-1-yn-1-yl)pyridin-2-yl)-2-(3,5-difluorophenyl)ethyl)-2-(4-ethylpiperazin-1-yl)acetamide] here?
Answer: The inhibition at 2 µM was 63%.

Question: What about the CC50 at 5 days [3] of the same molecule?
Answer: The CC50 at 5 days was 15.4 µM.

Question: For `Cn1nc(NS(C)(=O)=O)c2c(Cl)ccc(-c3ccc(C#CC(C)(C)O)nc3[C@H](Cc3cc(F)cc(F)c3)NC(=O)Cc3noc4ccccc34)c21` [Compound 198, (S)-2-(benzo[d]isoxazol-3-yl)-N-(1-(3-(4 chloro-1-methyl-3-(methylsulfonamido)-1H-indazol-7-yl)-6-(3-hydroxy-3-methylbut-1-yn-1-yl)pyridin-2-yl)-2-(3,5-difluorophenyl)ethyl)acetamide], which inhibition at 0.2 µM [1] is on record?
Answer: Its inhibition at 0.2 µM is 64%.

Question: And the inhibition at 2 µM [1]?
Answer: Its inhibition at 2 µM is 98%.

Question: What about the CC50 at 5 days [3] of the same molecule?
Answer: Its CC50 at 5 days is 23.7 µM.

Question: What does the source list for `Cc1cc2ncn(CC(=O)N[C@@H](Cc3cc(F)cc(F)c3)c3nc(C#CC(C)(C)O)ccc3-c3ccc(Cl)c4c(NS(C)(=O)=O)nn(C)c34)c2cc1C` [Compound 199, (S)—N-(1-(3-(4 chloro-1-methyl-3-(methylsulfonamido)-1H-indazol-7-yl)-6-(3-hydroxy-3-methylbut-1-yn-1-yl)pyridin-2-yl)-2-(3,5-difluorophenyl)ethyl)-2-(5,6-dimethyl-1H-benzo[d]imidazol-1-yl)acetamide]?
Answer: inhibition at 0.2 µM [1]: 95%; inhibition at 2 µM [1]: 95%; CC50 at 5 days [3]: 22.5 µM

Question: For `Cn1nc(NS(C)(=O)=O)c2c(Cl)ccc(-c3ccc(C#CC(C)(C)O)nc3[C@H](Cc3cc(F)cc(F)c3)NC(=O)Cc3ccc4ccccc4c3)c21` [Compound 200, (S)—N-(1-(3-(4 chloro-1-methyl-3-(methylsulfonamido)-1H-indazol-7-yl)-6-(3-hydroxy-3-methylbut-1-yn-1-yl)pyridin-2-yl)-2-(3,5-difluorophenyl)ethyl)-2-(naphthalen-2-yl)acetamide], which inhibition at 0.2 µM [1] is on record?
Answer: Its inhibition at 0.2 µM is 89%.

Question: What about the inhibition at 2 µM [1] of the same molecule?
Answer: The inhibition at 2 µM was 90%.

Question: What about the CC50 at 5 days [3] of the same molecule?
Answer: Its CC50 at 5 days is 12.2 µM.
